What was measured:
Format in all cases: cell-based, human
[1] = system: HeLa-control, HeLa-IG20 and HeLa-DENN-SV cells; test: Cell division after etoposide treatment, CFDA staining; conditions: 5 μM etoposide for 5 days
Experimental: (§1) FIG. 9: Effects of IG20 and DENN-SV on survival and proliferation of cells treated with etoposide. (A) Cell survival after etoposide treatment. Cells were treated with the indicated doses of etoposide and allowed to grow in culture for 2 weeks and stained with crystal violet. (B) Enumeration of colonies after etoposide treatment. Three different experiments using the indicated doses of etoposide were used to determine the effects of the drug on HeLa-control, HeLa-IG20 and HeLa-DENN-SV cells. P values were <0.05 for all test groups. (C) Etoposide-Induced apoptosis. Cells treated with the indicated doses of etoposide were stained with Hoechst as described in Materials and Methods and evaluated for chromatin condensation under a microscope. P values were <0.05 for all test groups. (D) Cell Division after Etoposide Treatment. Cells were stained with CFDA and then subjected to 5 μM etoposide treatment for 5 days. Cells were then harvested and evaluated by FACS for CFDA staining intensity. Histograms show relative levels of CFDA dye retention. The peak on the left within each histogram represents cells that have undergone cell division, and therefore, partially lost CFDA staining, whereas the peak on the right represents undivided cells that retained maximum CFDA staining.
1×10^5 Cells/100 mm^2 plate were stained with 2 μM CFDA (Molecular Probes, Eugene, Oreg.) in situ in 5 ml PBS/100 mm^2 for 10 minutes at 37° C. Cells were then washed 3 times and replenished with new media Cells were harvested 5 days later and analyzed by FACS.

[2] = system: HeLa-control, HeLa-IG20 and HeLa-DENN-SV cells; test: Colony formation after etoposide treatment (crystal violet)
Experimental: as §1
(§2) Cells were plated (10^5 cells/well) the day before treatment into 6 well plates. Cells were treated with etoposide for 24 hours or vinblastine for 1 hour at indicated concentrations. After treatment, cells were washed 3 times with PBS and then replenished with fresh media and incubated at 37° C. Two weeks later, cells were fixed in ice-cold methanol and stained with crystal violet for visualization.

[3] = system: HeLa-control, HeLa-IG20 and HeLa-DENN-SV cells; test: Etoposide-induced apoptosis, Hoechst chromatin condensation
Experimental: as §1
Cells were stained in situ with 1 μg/ml of Hoechst 33342 (Sigma, St. Louis, Mo.) in DMEM for 10 minutes at 37° C. […]

[4] = system: HeLa-control, HeLa-IG20 and HeLa-DENN-SV cells; test: Cell survival (crystal violet colonies) after vinblastine treatment; conditions: dose of 0.05 ∝M, two weeks
Experimental: (§3) FIG. 8: Effect of IG20 and DENN-SV on Cell Survival and Apoptosis of TransfectedCells after Vinblastine Treatment. (A) Cell survival after Vinblastine treatment. […] (B) Vinblastine-Induced apoptosis. Cells treated with 0.05 μM vinblastine were stained with Hoechst 24 hours after the treatment in order to determine the percentage of cells with condensed chromatin. P values were <0.05 for all test groups.
as §2

[5] = system: HeLa-control, HeLa-IG20 and HeLa-DENN-SV cells; test: Vinblastine-induced apoptosis, chromatin condensation by Hoechst staining; conditions: 0.05 μM vinblastine, Hoechst 24 hours after treatment
Experimental: as §3, §2
Cells were stained in situ with 1 μg/ml of Hoechst 33342 (Sigma, St. Louis, Mo.) in DMEM for 10 minutes at 37° C. Chromatin condensation was then visualized in situ using a Diaphot 200 inverted microscope with an epifluorescence attachment (Nikon, Inc., Melville, N.Y.). 10 different fields were randomly chosen to determine the average number of cells with condensed chromatin (apoptotic) as compared to live cells.

caspase-3 = test: Caspase-3 activation in HeLa IG20 cells; conditions: 5 hours; TRAIL, or TNF-α and cycloheximide
Experimental: FIG. 15: IG20 Cells show increased specific activation of caspases upon TRAIL treatment A) Initiator caspases—Hela IG20 cells and control cells treated with TRAIL for 1H, were stained, with flourochrome-conjugated peptide inhibitors of specific active caspases as indicated, fixed and analyzed by FACS. B) Caspase-8 cleavage—IG20 HeLa cells and control cells were treated with TRAIL for either 1H or 3H, lysed and immunoblotted for the 10 kDa cleaved product of active caspase-8 using the 6B6 monoclonal antibody. […]
Caspase activation—To assess the general activation of caspases, cells were stained with FITC tagged caspase inhibitor Val-Ala-Asp-flouromethyl ketone Promega, Madison, Wis.) for 10 minutes at 37° C., washed and analyzed by FACS for percentage of FITC positive cells. The initiator caspases were analyzed by using carboxyflourescein labeled peptide flouromethlyketone inhibitors (FAM-peptide-FMK) directed against active caspase-8, 9 and 10 (APOLOGIX caspase detection kit, Cell Tech Inc., Minneapolis, Minn.). […] Cells were collected, washed once, resuspended in Perm/wash buffer and analyzed by FACS for PE positive population. […]

HeLa IG20 cells = test: TRAIL or TNF-α/cycloheximide induced apoptosis in HeLa IG20 cells (caspase activation, TMRE, Hoechst); conditions: 5 hours; TRAIL 100 ng/mL, or 10 ng/mL TNF-α and 10 μg/mL cycloheximide
Experimental: FIG. 13: IG20 transfected HeLa cells show increased apoptosis upon TRAIL treatment. HeLa-IG20 and control cells were treated for 5 hours with TRAIL at 100 ng/mL or with 10 ng/mL of TNF-α and 10 μg/mL of Cycloheximide and analyzed for apoptosis. A) Activation of caspases—cells were incubated for 10 minutes with FITC labeled general caspase inhibitor VAD FMK (Val-Ala-Asp-flouromethyl ketone) and analyzed by FACS. Numbers in the histogram indicate percentage of FITC positive cells. B) Mitochondrial Depolarization—Loss of the dye TMRE is indicative of mitochondrial depolarization and the numbers shown in the FACS histograms represent percentage of TMRE negative cells. All the above experiments were done in triplicates and results shown are representative histograms. […] D) Percentage of cells with condensed chromatin was calculated by counting 3 fields containing at least 200 cells each and error bars indicate mean±S.D.
Mitochondrial depolarization and chromatin condensation—2×10^5 HeLa IG20 and Vector control cells were plated into a 12-well culture dish and allowed to grow for 48 hours. […] Cells were assessed for loss of mitochondrial membrane potential by staining with tetramethylrhodamine ethyl ester (100 nm, Molecular Probes, Eugene, Oreg.) for 10 minutes, washed once with ice-cold PBS, collected and subjected to FACS analysis. […]

HeLa cells = test: TNFα-induced mitochondrial depolarization in Annexin V-separated cells
From the text: FIG. 7: Endogenous Expression of IG20 variants and Susceptibility To TNF-Induced Apoptosis. (A) Magnetic Separation of Apoptotic and TNFα-resistant Cells. Apoptotic cells were magnetized and physically separated from TNFα-resistant cells using the Annexin V-conjugated microbeads, as described in Materials and Methods. mRNAs were then isolated from apoptotic and TNFα-resistant cells separately and were used in RT-PCR using IG20-specific primers F-1 and B-1. […] In contrast, marked increase in expression of IG20 with no expression of DENN-SV (the anti-apoptotic variant) is seen in apoptotic cells. (B) TNFα-Induced Mitochondrial Depolarization in apoptotic and TNFα-resistant cells. Cells in (A) were then assessed for mitochondrial depolarization. […] Bars represent averages from three wells for each group. The experiment was repeated at least three times and consistent results were obtained.
Cells were plated in 6-well plates at 1.2×10^5 in growth medium. Twenty four hours later, cells were either untreated or treated with 10 ng/ml TNF-α and 10 μg/ml cyclohexamide (CHX) for 6 hours. To assess the effects of TNFα and CHX treatment, cells were either stained with 100 nM tetramethylrhodamine ethyl ester (TMRE) (Molecular Probes, Eugene, Oreg.) for 10 minutes, harvested by trypsinization, washed once with ice-cold PBS and then subjected to FACS analysis, or were stained with either trypan blue and evaluated for viability using a light microscope, or with 1 μg/ml Hoechst 33342 (Sigma) for 10 minutes and evaluated for chromatin condensation in situ using a Diaphot 200 inverted microscope with an epifluorescence attachment (Nikon, Melville, N.Y.).
To separate cells that were undergoing apoptosis, or resistant to apoptosis upon TNFα treatment, the Annexin V microbeads (Miltenyi Biotec, Inc.) were used according to manufacturer's protocol. Annexin V is a phospholipid-binding protein that recognizes phosphatidylserine on the surface of apoptotic cells. […]

Compound: COc1cc([C@@H]2c3cc4c(cc3[C@@H](O[C@@H]3O[C@@H]5CO[C@@H](C)O[C@H]5[C@H](O)[C@H]3O)[C@H]3COC(=O)[C@H]23)OCO4)cc(OC)c1O [etoposide]
- Cell division as indicated by CFDA staining ([1]; DENN-SV cells): 36%
- Cell division as indicated by CFDA staining ([1]; HeLa-IG20 cells): 9%
- Cell division as indicated by CFDA staining ([1]; control cells): 24%
- Colonies formed after etoposide treatment ([2]; HeLa-DENN-SV cells, 5 μM etoposide): 125 colonies
- Colonies formed after etoposide treatment ([2]; HeLa-DENN-SV cells, 20 μM etoposide): approximately 40 colonies
- Growth after etoposide treatment ([2]; HeLa-DENN-SV cells, 30 μM etoposide): able to grow
- Colonies formed after etoposide treatment ([2]; HeLa-IG20 cells, 5 μM etoposide, on average): 8 colonies
- Colonies formed after etoposide treatment ([2]; HeLa-IG20 cells, 20 μM etoposide): very few or no colonies
- Colonies formed after etoposide treatment ([2]; HeLa-control cells, 5 μM etoposide): 39 colonies
- Etoposide-induced apoptosis ([3]; HeLa-DENN-SV cells): noticeable resistance to etoposide-induced apoptosis
- Etoposide-induced apoptosis ([3]; HeLa-IG20 cells): did not show a marked increase in susceptibility to apoptosis

Compound: CC[C@]1(O)C[C@@H]2CN(CCc3c([nH]c4ccccc34)[C@@](C(=O)OC)(c3cc4c(cc3OC)N(C)[C@H]3[C@@](O)(C(=O)OC)[C@H](OC(C)=O)[C@]5(CC)C=CCN6CC[C@]43[C@@H]65)C2)C1 [vinblastine]
- Cell survival (colonies) after vinblastine treatment ([4]; HeLa-DENN-SV cells): not significantly affected
- Cell survival (colonies) after vinblastine treatment ([4]; HeLa-IG20 cells): only a few HeLa-IG20 colonies detectable
- Cell survival (colonies) after vinblastine treatment ([4]; HeLa-control cells): intermediary response
- Vinblastine-induced apoptosis as measured by chromatin condensation ([5]; HeLa-DENN-SV cells): 21%
- Vinblastine-induced apoptosis as measured by chromatin condensation ([5]; HeLa-IG20 cells): 70%
- Vinblastine-induced apoptosis as measured by chromatin condensation ([5]; HeLa-controls): 46%

Compound: TNFα
- Relative increase in caspase-3 activation, HeLa IG20 relative to control cells (caspase-3): less than two fold increase
- Increase in cells undergoing apoptosis, HeLa IG20 versus control cells (HeLa IG20 cells): two-fold increase
- Apoptosis (cells with depolarized mitochondria) (HeLa cells; Annexin V-negative HeLa cells after TNFα and CHX): 8%
- Apoptosis (cells with depolarized mitochondria) (HeLa cells; Annexin V-positive HeLa cells after TNFα and CHX): 93%
- Apoptosis (cells with depolarized mitochondria) (HeLa cells; unseparated control HeLa cells): 35%

— patent US8722637B2, “Methods and compositions of IG20 and DENN-SV splice variants” (The Board of Trustees of the University of Illinois, priority 2003, dated 2014)
